# Entries after “also recorded” stand apart in the source; their conditions may differ.
# Legend:
# MV4-11 cells = assay: Growth inhibition, CellTiter-Blue viability, 72 h; format: cell-based; details: Homo sapiens, MV4-11 (Flt3-ITD+), read-out: Growth Suppression in AML Cell Lines (IC50, nM) MV4-11
# Protocol: (§1) Cells were seeded at a density of 100,000 cells per 1.0 ml in 48-well culture plates. Compounds were added to various concentrations while holding the DMSO concentration constant at 0.1%. Cell viability was assessed 72 hours later using the CellTiter-Blue Cell Viability assay (Promega) according to the manufacturer’s protocol and a SpectraMax Multi-Mode Microplate Reader (Molecular Devices). IC50 values were determined by non-linear regression analysis of concentration-response curves using the GraphPad PRISM software package (version 6.0). Apoptosis was determined using the same cell culture conditions and the Apo-ONE Homogeneous Caspase-3/7 Assay (Promega) and the manufacturer’s protocol.
# (§2) Fig 2 Fes tyrosine kinase inhibitors induce growth arrest in Flt3-ITD^+ AML cell lines. A) The Flt3-ITD^+ cell lines MV4-11, MOLM-13, and MOLM-14, along with THP-1 (wild-type FLT3) were incubated with each of the kinase inhibitors shown over a range of concentrations, and cell viability was measured 72 h later using the CellTiter-Blue Assay (see Materials and methods). Raw fluorescence data were corrected for background and then normalized to cultures grown in the presence of the DMSO carrier solvent. Each assay condition was performed in triplicate, and results are presented as the mean of the normalized values ± the SD. The resulting dose-response curves were fitted by non-linear regression analysis, and the resulting IC50 values are shown in Table 1.
# THP-1 cells [1] = assay: Growth inhibition, CellTiter-Blue viability, 72 h; format: cell-based; details: Homo sapiens, THP-1 (wild-type Flt3), read-out: Growth Suppression in AML Cell Lines (IC50, nM) THP-1
# Protocol: as §1, §2
# MOLM-13 cells = assay: Growth inhibition, CellTiter-Blue viability, 72 h; format: cell-based; details: Homo sapiens, MOLM-13 (Flt3-ITD+), read-out: Growth Suppression in AML Cell Lines (IC50, nM) MOLM-13
# Protocol: as §1, §2
# MOLM-14 cells = assay: Growth inhibition, CellTiter-Blue viability, 72 h; format: cell-based; details: Homo sapiens, MOLM-14 (Flt3-ITD+), read-out: Growth Suppression in AML Cell Lines (IC50, nM) MOLM-14
# Protocol: as §1, §2
# [2] = biological target: T1, recombinant full-length Fes (Homo sapiens, UniProt P07332); assay: In vitro kinase assay (Z'-LYTE); format: biochemical; details: highest concentration tested 100 μM
# T1 construct: in vitro kinase assays using recombinant purified full-length Fes; made in house; host or cells: E. coli
# Protocol: Recombinant protein kinase assays were performed using the FRET-based Z’-LYTE Kinase Assay according to the manufacturer’s instructions (Thermo Fisher Scientific). […] The Tyr-2 peptide was used as substrate for all recombinant kinases. Kinases were preincubated with inhibitors for 30 minutes, followed by addition of ATP and peptide substrate for 1 hour. Reactions were quenched by addition of development reagent, followed by incubation for an additional hour prior to fluorescence measurements on a SpectraMax M5 microplate reader. IC50 values were calculated by non-linear regression analysis of the resulting concentration-response curves using GraphPad PRISM.
# [3] = test system: T2, Fes in MV4-11 and MOLM-14 cells; assay: Immunoprecipitation/immunoblot of Fes activation loop phosphorylation (pY713) in AML cells; format: cell-based, human; details: compound at in vitro IC90 for Fes, 16 h (tandutinib: IC90 for Flt3-ITD, 6 h)
# T2 construct: endogenous in cells; host or cells: MV4-11 and MOLM-14
# Protocol: (§3) AML cells (2.5 x 10^6 in 5 mL) were cultured in the presence of kinase inhibitors or DMSO alone for 6 to 16 hours prior to lysis by sonication in RIPA buffer (50 mM Tris-HCl, pH 7.4, 150 mM NaCl, 1 mM EDTA, 1% Triton X-100, 0.1% SDS, 1% sodium deoxycholate) supplemented with 1 mM sodium orthovanadate, 1 mM sodium fluoride, 5 units/ml Benzonase (Novagen), and SigmaFAST EDTA-free protease inhibitor cocktail (Sigma). Flt3 and Fes were immunoprecipitated from 1 mg of cell lysate with 2 μg of antibody and 25 μL of protein G-Sepharose beads (Life Technologies) overnight at 4°C. Immunoprecipitates were washed three times by resuspension in 1.0 ml of RIPA buffer. Immunoprecipitated proteins were separated by SDS-PAGE, transferred to PVDF membranes and probed with the indicated antibodies followed by alkaline phosphatase-linked secondary antibodies. CDP-Star Western Blot Chemiluminescence Reagent (Perkin-Elmer) was used for detection.
# (§4) Fes and Flt3 kinase proteins were then immunoprecipitated from cell lysates, followed by immunoblotting with antibodies to phosphotyrosine (pTyr), the Fes activation loop phosphotyrosine (pY713), as well as the Flt3 and Fes proteins.
# [4] = test system: Flt3 and Fes in primary AML patient samples; set-up: method as in PMID 20111072; details: cited from earlier work
# [5] = test system: Flt3-ITD in TF-1/Flt3-ITD cells; assay: Immunoprecipitation/immunoblot of Flt3 phosphotyrosine content in TF-1/Flt3-ITD cells; format: cell-based, human; details: compound at in vitro IC90 for Fes, 16 h (tandutinib: IC90 for Flt3-ITD, 6 h)
# Protocol: as §3
# (§5) Raw fluorescence data were corrected for background and then normalized to cultures grown in the presence of the DMSO carrier solvent. Each condition was performed in triplicate, and results are presented as the mean of the normalized values ± the SD. The resulting dose-response curves were fitted by non-linear regression analysis for estimation of the IC50 values (see Table 2). […] Fes and Flt3 kinase proteins were then immunoprecipitated from cell lysates followed by immunoblotting with antibodies to phosphotyrosine (pTyr), the Fes activation loop phosphotyrosine (pY713), as well as the Flt3 and Fes proteins.
# [6] = test system: Flt3-ITD+ AML cell lines (MV4-11, MOLM-13, MOLM-14); assay: Apoptosis, Apo-ONE Caspase 3/7 assay; format: cell-based, human; details: 1.0 μM, 72 h
# Protocol: as §1
# Cell viability was measured in parallel using the CellTiter-Blue assay, and the resulting data are presented as the ratio of Caspase activity to cell viability as per the manufacturer’s protocol. All assays were performed in triplicate, and data are presented as the mean ratios ± SD. Asterisks indicate statistical significance between each treatment group vs. the corresponding DMSO control group with p < 0.05 (Student’s t-test).
# Flt3-ITD in Ba/F3 cells = details: 100 nM; cited from earlier work
# [7] = test system: Fes in TF-1/Flt3-ITD cells; assay: Immunoprecipitation/immunoblot of Fes pY713 in TF-1/Flt3-ITD cells; format: cell-based, human; details: compound at in vitro IC90 for Fes, 16 h (tandutinib: IC90 for Flt3-ITD, 6 h)
# Protocol: as §3, §5
# [8] = test system: Flt3-D835Y in TF-1/Flt3-D835Y cells; assay: Immunoprecipitation/immunoblot of Flt3-D835Y phosphotyrosine content in TF-1/Flt3-D835Y cells; format: cell-based, human; details: immunoblot, compound at in vitro IC90
# Protocol: as §3, §5
# [9] = test system: Flt3-ITD-transformed Ba/F3 cells; details: cited from earlier work
# [10] = test system: TF-1 cells expressing Flt3-WT; assay: Inhibitor sensitivity of TF-1 cell populations, CellTiter-Blue, 72 h; format: cell-based; details: Homo sapiens, TF-1, 72 h, read-out: Inhibitor sensitivity of TF-1 Cell Populations (IC50, nM) Flt3-WT
# Protocol: as §1
# (§6) For each retroviral transduction, TF-1 cells (1 x 10^6) were suspended in 5 mL of undiluted viral supernatant and plated in one well of a 6-well tissue culture dish. Polybrene (Sigma) was added to a final concentration of 4 μg/mL and the TF-1 cells were centrifuged at 1000 x g for 3 hours to enhance retroviral mediated gene transfer. After centrifugation, the virus was removed and replaced with fresh medium.
# as §5
# TF-1/Flt3-D835Y cells = assay: as above; format: cell-based, human; details: Homo sapiens, TF-1, 72 h, read-out: Inhibitor sensitivity of TF-1 Cell Populations (IC50, nM) Flt3-D835Y
# Protocol: as §1, §6, §5
# [11] = test system: TF-1 cells transduced with an empty retroviral vector (Control); assay: as above; format: cell-based, human
# Protocol: as §1, §6, §5
# TF-1/Flt3-ITD cells = assay: as above; format: cell-based, human; details: Homo sapiens, TF-1, 72 h, read-out: Inhibitor sensitivity of TF-1 Cell Populations (IC50, nM) Flt3-ITD
# Protocol: as §1, §6, §5
# [12] = test system: Flt3-ITD+ AML cell lines (MV4-11, MOLM-13, MOLM-14); assay: Growth inhibition across Flt3-ITD+ AML cell lines; format: cell-based; details: Homo sapiens, 72 h, read-out: IC50 values for growth inhibition, range over the Flt3-ITD+ AML cell lines
# Protocol: as §1
# Raw fluorescence data were corrected for background and then normalized to cultures grown in the presence of the DMSO carrier solvent. Each assay condition was performed in triplicate, and results are presented as the mean of the normalized values ± the SD.
# [13] = test system: Flt3-ITD in MV4-11 and MOLM-14 cells; assay: Immunoprecipitation/immunoblot of Flt3 phosphotyrosine content in AML cells; format: cell-based, human; details: compound at in vitro IC90 for Fes, 16 h (tandutinib: IC90 for Flt3-ITD, 6 h)
# Protocol: as §3, §4
# THP-1 cells [14] = assay: Apoptosis, Apo-ONE Caspase 3/7 assay; format: cell-based, human; details: 1.0 μM, 72 h
# Protocol: as §1
# Fig 3 Fes tyrosine kinase inhibitors induce apoptosis in Flt3-ITD^+ AML cell lines. The Flt3-ITD^+ cell lines MV4-11, MOLM-13, and MOLM-14, along with THP-1 (wild-type FLT3), were incubated with each of kinase inhibitors shown at a final concentration of 1 μM and apoptosis was measured 72 h later using the Apo-ONE Caspase 3/7 Assay (Promega). Cell viability was measured in parallel using the CellTiter-Blue assay, and the resulting data are presented as the ratio of Caspase activity to cell viability as per the manufacturer’s protocol. All assays were performed in triplicate, and data are presented as the mean ratios ± SD. […]
# Stat5 activation = test system: Stat5 activation; set-up: method as in PMID 22411868; details: MV4-11 cells and AML patient samples; cited from earlier work
# T1 sequence (P07332 whole entry): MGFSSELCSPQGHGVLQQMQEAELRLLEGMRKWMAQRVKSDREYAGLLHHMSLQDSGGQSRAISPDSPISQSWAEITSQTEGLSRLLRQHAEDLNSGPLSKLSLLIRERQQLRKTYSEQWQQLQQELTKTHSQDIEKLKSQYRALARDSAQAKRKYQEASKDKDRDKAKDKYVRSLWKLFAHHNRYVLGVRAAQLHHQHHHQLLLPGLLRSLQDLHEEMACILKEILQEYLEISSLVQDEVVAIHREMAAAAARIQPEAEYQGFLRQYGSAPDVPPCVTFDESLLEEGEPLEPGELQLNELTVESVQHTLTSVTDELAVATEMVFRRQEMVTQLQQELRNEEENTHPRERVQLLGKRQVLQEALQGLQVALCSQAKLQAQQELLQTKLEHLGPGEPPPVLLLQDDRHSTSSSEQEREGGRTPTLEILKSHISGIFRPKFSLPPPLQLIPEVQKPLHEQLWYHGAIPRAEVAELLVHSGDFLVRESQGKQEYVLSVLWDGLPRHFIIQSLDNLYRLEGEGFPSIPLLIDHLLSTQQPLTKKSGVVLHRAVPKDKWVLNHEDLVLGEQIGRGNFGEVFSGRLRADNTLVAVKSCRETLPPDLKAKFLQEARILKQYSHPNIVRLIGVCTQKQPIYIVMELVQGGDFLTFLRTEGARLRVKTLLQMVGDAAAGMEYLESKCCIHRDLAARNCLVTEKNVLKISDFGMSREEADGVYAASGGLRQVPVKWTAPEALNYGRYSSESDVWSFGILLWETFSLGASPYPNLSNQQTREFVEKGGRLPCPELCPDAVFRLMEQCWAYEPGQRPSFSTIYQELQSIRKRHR
smiles,measurement,setting,value
"COc1cc2c(N3CCN(C(=O)Nc4ccc(OC(C)C)cc4)CC3)ncnc2cc1OCCCN1CCCCC1 [Tandutinib, reference compound]",IC50,MV4-11 cells,502 nM
same,IC50,THP-1 cells [1],> 3000 nM
same,IC50,MOLM-13 cells,532 nM
same,IC50,MOLM-14 cells,232 nM
same,Effect on Fes kinase activity in vitro (words),[2],does not inhibit Fes in vitro or in cells
same,Effect on Fes kinase activity in vitro (words),[2]; listed as tandutinib,no effect
same,Inhibition of Fes activation loop phosphorylation in MV4-11 and MOLM-14 cells,[3],little effect
Cc1cc(C)c(/C=C2\C(=O)Nc3ccccc32)[nH]1 [SU5416],Effect on Flt3 and Fes activation in primary AML patient samples,[4],reduced both Flt3 and Fes activation
"COc1cc(N2CCC(N3CCN(C)CC3)CC2)ccc1Nc1ncc(Cl)c(Nc2ccccc2S(=O)(=O)C(C)C)n1 [TAE-684, reference compound]",Inhibition of Flt3-ITD phosphotyrosine content in TF-1/Flt3-ITD cells,[5],no effect on Flt3-ITD; also recorded: did not affect Flt3-ITD phosphotyrosine content
same,Apoptosis (Caspase 3/7 activity) in Flt3-ITD+ AML cell lines,[6],equal to or greater than that observed with tandutinib
same,Effect on Flt3-ITD phosphotyrosine content in Ba/F3 cells expressing Flt3-ITD,Flt3-ITD in Ba/F3 cells,no effect
same,Inhibition of Fes activation loop phosphorylation in TF-1/Flt3-ITD cells,[7],inhibited Fes
same,Inhibition of Flt3-D835Y phosphotyrosine content in TF-1/Flt3-D835Y cells,[8],complete inhibition; also recorded: completely suppressed
same,IC50,MV4-11 cells,123 nM
same,IC50,THP-1 cells [1],> 3000 nM
same,IC50,MOLM-13 cells,166 nM
same,IC50,MOLM-14 cells,74 nM
same,Inhibition of Fes activation loop phosphorylation in MV4-11 and MOLM-14 cells,[3],did inhibit Fes
same,Effect on Flt3-ITD-transformed Ba/F3 cell proliferation,[9],no effect
same,IC50,[10],> 1000 nM
same,IC50,TF-1/Flt3-D835Y cells,83 nM
same,IC50,"[11]; Homo sapiens, TF-1, empty vector control, 72 h",> 1000 nM
same,Nonspecific cytotoxicity in TF-1 cells expressing wild-type Flt3 or vector control cells,[11]; TF-1/Flt3-WT and vector control cells,some nonspecific cytotoxicity in the low micromolar range
same,IC50,TF-1/Flt3-ITD cells,82 nM
same,IC50,[12],19 to 166 nM
same,Inhibition of Flt3-ITD phosphotyrosine content in MV4-11 and MOLM-14 cells,[13],no effect
"CN[C@@H]1C[C@H]2O[C@@](C)([C@@H]1OC)n1c3ccccc3c3c4c(c5c6ccccc6n2c5c31)C(=O)NC4 [staurosporine, reference compound]",Apoptosis (Caspase 3/7 activity) in Flt3-ITD+ AML cell lines,[6],strong apoptotic response
same,Apoptosis (Caspase 3/7 activity) in THP-1 cells,THP-1 cells [14],strong apoptotic response
Cc1nc(Nc2ncc(C(=O)Nc3c(C)cccc3Cl)s2)cc(N2CCN(CCO)CC2)n1 [dasatinib],Effect on Stat5 activation,Stat5 activation,reduced Stat5 activation
